Experimental findings from patent publication US11046714B2, “2,2-difluorodioxolo A2A receptor antagonists” (Merck Sharp & Dohme Corp., priority 2013, dated 2021) are described below.

For this experiment, the target named is human A2A receptor (Homo sapiens (Human), UniProt P29274). The experiment in a line: competition binding assay using Scintillation Proximity technology. Conditions: membranes from CHO-K1 cells expressing the human A2a receptor; 2.0 nM tritiated compound; Cheng-Prusoff. The method in brief: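 Membranes (1.0 μg) from CHO-K1 cells expressing human A2A were treated with adenosine deaminase, then incubated 1 h at room temperature with compound (3000–0.15 nM) and 2.0 nM tritiated SCH-type ligand on WGA SPA beads in PBS plus 10 mM MgCl2. Nonspecific binding was defined with 1 μM CGS 15943. Ki was derived from EC50 via Cheng-Prusoff.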
Sequence of human A2A receptor (P29274 whole entry): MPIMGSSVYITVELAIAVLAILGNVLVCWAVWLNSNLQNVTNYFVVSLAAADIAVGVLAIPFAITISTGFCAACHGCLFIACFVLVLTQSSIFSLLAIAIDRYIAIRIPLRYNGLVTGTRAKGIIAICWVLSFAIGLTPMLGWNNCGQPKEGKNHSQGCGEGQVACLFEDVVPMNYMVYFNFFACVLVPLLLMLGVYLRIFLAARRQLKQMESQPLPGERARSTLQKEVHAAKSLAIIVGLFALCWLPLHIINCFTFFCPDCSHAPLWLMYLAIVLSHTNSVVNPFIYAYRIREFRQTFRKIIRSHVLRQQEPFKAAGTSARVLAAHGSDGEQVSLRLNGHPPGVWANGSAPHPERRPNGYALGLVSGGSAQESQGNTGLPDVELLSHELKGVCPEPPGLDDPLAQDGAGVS

The compound `Nc1nc2c3c(ccc2c2nc(CCN4CCC(F)CC4)nn12)OC(F)(F)O3` [Example 27, 2,2-difluoro-8-[2-(4-fluoropiperidin-1-yl)ethyl] [1,3]dioxolo[4,5-h][1,2,4] triazolo[1,5-c]quinazolin-5-amine] came in with an inhibitory constant (Ki) of 7.8 nM.
With `Nc1nc2c3c(ccc2c2nc(CCN4CCCC(O)(C(F)(F)F)C4)nn12)OC(F)(F)O3` (single isomer, unassigned) [Example 71, (R or S)-1-(2-(5-amino-2,2-difluoro-[1,3]dioxolo[4,5-h][1,2,4]triazolo[1,5-c]quinazolin-8-yl)ethyl)-3-(trifluoromethyl)piperidin-3-ol] the figure was 3.9 nM; with `Cc1nc2c(s1)CCN(CCc1nc3c4ccc5c(c4nc(N)n3n1)OC(F)(F)O5)C2` [Example 13, 2,2-difluoro-8-[2-(2-methyl-6,7-dihydro[1,3]thiazolo[4,5-c]pyridin-5(4H)-yl)ethyl][1,3] dioxolo[4,5-h][1,2,4]triazolo [1,5-c]quinazolin-5-amine], 1.8 nM; with `C[C@@H]1CN(CCc2nc3c4ccc5c(c4nc(N)n3n2)OC(F)(F)O5)CCO1` [Example 42, 2,2-difluoro-8-{2-[(2R)-2-methylmorpholin-4-yl]ethyl}[1,3]dioxolo[4,5-h][1,2,4]triazolo[1,5-c]quinazolin-5-amine], 11 nM.
`C[C@@H]1CN(CCc2nc3c4ccc5c(c4nc(N)n3n2)OC(F)(F)O5)C[C@@H](C)O1` [Example 63, 8-{2-[(2R,6R)-2,6-dimethylmorpholin-4-yl]ethyl}-2,2-difluoro[1,3]dioxolo[4,5-h][1,2,4] triazolo[1,5-c]quinazolin-5-amine] had a Ki of 36 nM.
To `C[C@@H]1CC(F)(F)CCN1CCc1nc2c3ccc4c(c3nc(N)n2n1)OC(F)(F)O4` [Example 31, 8-{2-[(2R)-4,4-difluoro-2-methylpiperidin-1-yl]ethyl}-2,2-difluoro[1,3]dioxolo[4,5-h][1,2,4]triazolo[1,5-c]quinazolin-5-amine] belongs 2.2 nM; to `Nc1nc2c3c(ccc2c2nc(C4CCCN(c5cccc(F)c5)C4)nn12)OC(F)(F)O3` (single isomer, unassigned) [Example 142, (R or S)-2,2-difluoro-8-[1-(3-fluorophenyl)piperidin-3-yl][1,3]dioxolo[4,5-h][1,2,4]triazolo[1,5-c]quinazolin-5-amine], 1.2 nM.
Consider `Nc1nc2c3c(ccc2c2nc(CC(CCl)CCl)nn12)OC(F)(F)O3` [Example 150, 8-[3-chloro-2-(chloromethyl)propyl]-2,2-difluoro[1,3]dioxolo[4,5-h][1,2,4]triiazolo[1,5-c]quinazolin-5-amine], for which the affinity corresponds to a Ki of 2.3 nM.
On to `Nc1nc2c3c(ccc2c2nc(CCN4Cc5cccnc5C4)nn12)OC(F)(F)O3` [Example 6], for which the affinity, expressed as Ki, was 6.5 nM.
To `Nc1nc2c3c(ccc2c2nc(CCN4CC5COCC(C4)C5(F)F)nn12)OC(F)(F)O3` [Example 32, 8-[2-(9,9-difluoro-3-oxa-7-azabicyclo[3.3.1]non-7-yl)ethyl]-2,2-difluoro[1,3]dioxolo [4,5-h][1,2,4]triazolo[1,5-c]quinazolin-5-amine] belongs 40 nM; to `C[C@@H](Cc1nc2c3ccc4c(c3nc(N)n2n1)OC(F)(F)O4)N1Cc2ccncc2C1` [Example 87, (S)-8-(2-(1H-pyrrolo[3,4-c]pyridin-2(3H)-yl)propyl)-2,2-difluoro-[1,3]dioxolo[4,5-h][1,2,4]triazolo[1,5-c]quinazolin-5-amine], 7.7 nM.
To `Nc1nc2c3c(ccc2c2nc(Cc4cccnc4N4CC[C@@H](c5ccc(F)cc5)C4)nn12)OC(F)(F)O3` [Example 4, (S)-2,2-difluoro-8-((2-(3-(4-fluorophenyl)pyrrolidin-1-yl)pyridin-3-yl)methyl)-[1,3]dioxolo[4,5-h][1,2,4]triazolo[1,5-c]quinazolin-5-amine] belongs 8.3 nM.
